How the values were obtained:
[1] = Half life in rat liver microsomes at 1 uM in presence of NADPH
[2] = Half life in human liver microsomes at 1 uM in presence of NADPH
[3] = Half life in Sprague-Dawley rat at <= 1 mg/kg, iv; format: ADME, organism-based; set-up: dose 1 mg/kg, route intravenous; conditions: in vivo
[4] = Lipophilicity, log P of the compound; format: physicochemical; conditions: octanol/water
CYP3A4/5 = CYP3A4/5 (Homo sapiens, UniProt P08684+P20815); experiment: Reversible inhibition of CYP3A4/5 in human liver microsomes using midazolam as substrate preincubated for 30 mins followed by NADPH and substrate addition measured after 10 mins; format: ADME, Microsome; conditions: probe midazolam
[5] = Clearance in Sprague-Dawley rat at <= 1 mg/kg, iv; format: ADME, organism-based; set-up: dose 1 mg/kg, route intravenous; conditions: in vivo
[6] = Volume of distribution at steady state in Sprague-Dawley rat at <= 1 mg/kg, iv; format: ADME, organism-based; set-up: dose 1 mg/kg, route intravenous; conditions: in vivo, read-out: Vdss

Structure (SMILES) | half-life at 1 µM ([1]; microsomes) [h] | half-life at 1 µM ([2]; microsomes) [h] | IC50 at 10 min (CYP3A4/5) [µM] | half-life at 1 µM ([1]; liver microsomes) [h] | half-life at 1 µM ([2]; liver microsomes) [h] | other results
CC(C)(C)c1ccc(-c2ccc(C#N)cn2)cc1 | 0.5 | 0.85 | > 50 | – | – | half-life [3]: 2.3 h; logP [4]: 4.2; clearance [5]: 20 mL/min/kg; Vd [6]: 2.5 L/kg
CC(C)(C(=O)O)c1ccc(-c2ccc(C#N)cn2)cc1 | 2.25 | 4.57 | – | – | – | –
CC(C)(CO)c1ccc(-c2ccc(C#N)cn2)cc1 | 2.08 | 3.37 | – | – | – | –
CC(C)(C)NC(=O)[C@H]1CC[C@H]2[C@@H]3CC[C@H]4NC(=O)C=C[C@]4(C)[C@H]3CC[C@]12C [FINASTERIDE] | – | 1.05 | – | – | – | –
CC(C)(C)c1ccc(C(=O)Nc2ccc(C#N)nc2)cc1 | – | – | – | 0.4 | 0.85 | –
CC(C)(C)c1ccc(C(=O)Nc2ccc(C(F)(F)F)cc2)cc1 | – | – | – | 0.2 | 0.483 | –
CC(C)(C)c1ccc(C(=O)Nc2ccc(C(F)(F)F)nc2)cc1 | – | – | > 50 | 0.417 | 0.683 | half-life [3]: 0.2 h; clearance [5]: 352 mL/min/kg; Vd [6]: 5.4 L/kg
CC(C)(C)c1ccc(C(=O)Nc2ccc(C#N)cc2)cc1 | – | – | – | 0.2 | 1.42 | –
CC(C)(C#N)c1ccc(-c2ccc(C#N)cn2)cc1 | 1.17 | 2.03 | – | – | – | –
O=C(Nc1ccc(C(F)(F)F)cc1)c1ccc(C2(C(F)(F)F)CC2)cc1 | 0.667 | > 6.75 | – | – | – | –
C[C@]12C=CC(=O)N[C@@H]1CC[C@@H]1[C@@H]2CC[C@]2(C)[C@@H](C(=O)NC3(C(F)(F)F)CC3)CC[C@@H]12 | – | – | – | – | 1.9 | –
CC(C)c1ccc(-c2ccc(C#N)cn2)cc1 | 0.117 | 0.15 | > 50 | – | – | –
CC(C)(C)c1ccc(-c2ccc(F)cn2)cc1 | 0.4 | 0.45 | > 50 | – | – | –
CC1(c2ccc(-c3ccc(C#N)cn3)cc2)COC1 | 0.617 | 0.633 | > 50 | – | – | half-life [3]: 0.4 h; clearance [5]: 28 mL/min/kg; Vd [6]: 1.3 L/kg

The next lines start with results.

half-life at 1 µM ([1]; microsomes) [h] | half-life at 1 µM ([2]; microsomes) [h] | IC50 at 10 min (CYP3A4/5) [µM] | half-life at 1 µM ([1]; liver microsomes) [h] | half-life at 1 µM ([2]; liver microsomes) [h] | Structure (SMILES) | other results
– | – | > 50 | > 6.75 | 1.07 | Fc1ccc(-c2ccc(C3(C(F)(F)F)CC3)cc2)nc1 | –
– | – | – | 0.133 | 0.417 | CC(C)(C)c1ccc(-c2ccnc(C#N)c2)cc1 | –
– | – | – | 1.63 | 1.47 | N#Cc1ccc(NC(=O)c2ccc(C3(C(F)(F)F)CC3)cc2)cn1 | –
– | – | > 50 | > 6.67 | 2.5 | N#Cc1ccc(-c2ccc(C3(C(F)(F)F)CC3)cc2)nc1 | half-life [3]: 9.1 h; logP [4]: 4; clearance [5]: 4.6 mL/min/kg; Vd [6]: 3.4 L/kg
– | – | > 50 | 3.28 | > 6.75 | O=C(Nc1ccc(C(F)(F)F)nc1)c1ccc(C2(C(F)(F)F)CC2)cc1 | half-life [3]: 3.4 h; clearance [5]: 25 mL/min/kg; Vd [6]: 6.2 L/kg
– | – | – | 2.15 | 1.83 | N#Cc1ccc(-c2ccc(C3(C(F)(F)F)CC3)nc2)nc1 | –
0.417 | 1.1 | – | – | – | CC(c1ccc(-c2ccc(C#N)cn2)cc1)C(F)(F)F (centres undefined) | –
– | – | – | 1.25 | 1.15 | N#Cc1cc(-c2ccc(C3(C(F)(F)F)CC3)cc2)ccn1 | –
0.783 | > 6.75 | – | – | – | N#Cc1ccc(NC(=O)c2ccc(C3(C(F)(F)F)CC3)cc2)cc1 | –

— ChEMBL document CHEMBL2384944, “Metabolically Stable tert-Butyl Replacement” (ACS Med Chem Lett, 2013)
